Legend:
Format in all cases: physicochemical
[1] = Gelation of 4-PEG-SH with OND linkers, gelation time by inversion test; settings: neutral water, 17% DMSO, stoichiometric triethylamine added, room temperature
Procedure: PEG-OND hydrogels were prepared by mixing tetravalent thiol-terminated PEG (4-PEG-SH, Mw˜2,500 Da for each arm) at 3.5 weight percent and multivalent OND linkers at equimolar concentration of thiol and electrophile in phosphate buffer containing 7% DMSO by volume (FIG. 42). The reactions were mixed briefly and the gel was allowed to cure at temperature or 37° C. Gelation time was recorded as the point at which the sample no longer flowed upon inversion of the reaction vessel.
Trial gelations were performed by premixing a solution of linker 7a with four-armed thiol-terminated poly(ethylene glycol) (4-PEG-SH. Mn=10,000) in neutral water containing 17% DMSO by volume. The overall concentration of PEG macromer was varied from 0.4 wt % to 8.3 wt % while maintaining an equimolar ratio of thiol to electrophile. Under these conditions, no gels formed on standing at room temperature for five minutes.
Based on empirical observations made in these trials, subsequent gels were prepared at room temperature from 3.5 wt % 4-PEG-SH solutions in phosphate buffers containing 7% DMSO at equimolar concentrations of thiol and OND electrophile. Mixtures were mixed briefly with a vortex mixer, and the reaction vial was periodically tilted or inverted. Gelation time was recorded when the sample no longer flowed and was self-supporting. […] Gelation time at 37° C. was determined by pre-warming 4-PEG-SH macromer and OND stock solutions in a 37° C. water bath. Gel components were combined and mixed briefly by pipetting, and the sample was held in the water bath. Gelation time was determined by the inversion test, as described above.
The labeled protein solutions prepared as described in the previous section were diluted three-fold with pH 7.4 100 mM phosphate buffer and used to dissolve the 4-PEG-SH macromer at 3.76 wt %. This solution was used in an identical manner as pure 4-PEG-SH solution for the purpose of forming PEG-OND hydrogels (FIG. 45). All samples formed self-supporting hydrogels within 1 min after mixing, as determined by the inversion test.

[2] = Erosion of swollen hydrogels (BODIPY erosion probe, time-lapse photography); settings: poorly controlled BODIPY labeling protocol
Excerpt: Degradation behavior of PEG-OND hydrogels under swelling conditions was investigated by labeling 3% of the 4-PEG-SH thiols with a BODIPY fluorophore via maleimide coupling before gelation. Gels prepared from this material are expected to have slightly lower crosslink densities and to degrade sooner when compared to gels formed without the erosion probe (FIG. 19). However, the probe-labeled macromer allowed convenient monitoring and comparison of erosion behavior under conditions relevant for biological applications. An increase in absorbance (504 nm) of the swelling buffer was observed as pieces containing the labeled PEG-thiol components were detached from the gel by rDA fragmentation (FIG. 2). […] Using combinations of linkers, it was possible to produce hydrogels with release profiles tuned between those of gels prepared from a single linker (FIG. 2C).
The 3.76 wt % solution of BODIPY-labeled 4-PEG-SH prepared above was used to form hydrogels using a method identical to unlabeled gels. Briefly, BODIPY-labeled 4-PEG-SH was combined with DMSO stocks of multivalent ONDs at equimolar concentration of thiol and electrophile. […] The absorbance of the supernatant at 504 nm was measured immediately to obtain a baseline measurement (t=0 hours), and the samples were placed into a 37° C. incubator. The absorbance of the swelling supernatant was monitored periodically by removal of 1 mL of buffer into a cuvette and measuring absorbance of the sample at 504 nm. […] This process was repeated for each sample until gel degradation was complete and the absorbance at 504 nm stabilized (100% dye released). In order to estimate the fraction of dye released from the non-degradable gel formed with bi s-EONB 8, a mock endpoint sample consisting of BODIPY-labeled 4-PEG-SH diluted to 3.5 wt % was prepared, and the absorbance at 504 nm was measured. […] The absorbance values collected over the course of the experiment were divided by the absorbance value measured after gel disintegration to obtain fractional dye release versus time. […]
The time at which the glass bead reached the bottom of the tube was recorded. […]

[3] = Oscillatory rheology of PEG-OND hydrogels; settings: pH 7.2, 37° C., strain 1%, 1 rad/sec, after 2-3 hours
Procedure: Oscillatory rheology was used to assess the viscoelastic properties of selected PEG-OND hydrogels. […] The truncated cone was then brought in contact with the bis-EONB/4-PEG-SH mixture before setting of the gel by positioning the tool at the measuring position. The sample was inspected for spillovers and trimmed as required. A preliminary preshearing step consisting of 30 seconds at 0.1% strain and ω=0.01 rad/s was performed to ensure good contact with the gel sample. The elastic (storage) and viscous (loss) moduli, G′ and G″, respectively, were then measured as a function of time for a constant strain of 1% and an angular frequency of 1 rad/sec. The ability to store energy is described by G′, while the amount of energy dissipated is related with G″. It was observed that the sample experienced a rapid transformation from an initial state in which G′ was not much larger than G″ to a state in which G′ was clearly predominant, as shown in FIG. 5; this is consistent with gelation. The observed transformation happened in the first few minutes after preparation, even when the hydrogel continued to rigidify for up to 2-3 hours.
The linear regime of this sample was determined by performing an oscillatory strain sweep at 37° C. The frequency sweep shown in the main text was thus performed in the linear region.
[…] In both experiments, G′>>G″.

Row | Structure (SMILES) | 4-PEG-SH concentration giving instantaneous gelation [1] [wt %] | Dye released from gel made with multiply-labeled 4-PEG-SH macromer [2] | Storage modulus G′ versus loss modulus G″ [3]
1 | COC(=O)C1=C(C(=O)OC)C2(CNC(=O)CCCC(=O)NCC34C=CC(O3)C(C(=O)OC)=C4C(=O)OC)C=CC1O2 [Linker 7a, Tetramethyl 1,1′-((glutaroylbis(azanediyl))bis(methylene))bis(7-oxabicyclo[2.2.1]hepta-2,5-diene-2,3-dicarboxylate)] | > 2.5 | – | –
2 | COC(=O)C1=C(C(=O)OC)C2(CNC(=O)CCCC(=O)NCC34OC(C(C(=O)OC)=C3C(=O)OC)C3OC34)OC1C1OC12 (stereo not drawn) [Linker 8, Tetramethyl 1,1′-((glutaroylbis(azanediyl))bis(methylene))bis(3,8-dioxatricyclo[3.2.1.0^2,4]oct-6-ene-6,7-dicarboxylate)] | – | up to 50% | G″ was negligible in comparison with G′

— patent publication US10517952B2, “Nucleophile-triggered degradable materials and methods of making and using the same” (GEORGIA TECH RESEARCH CORPORATION, priority 2014, dated 2019)
